Laboratory results reported in patent US6515122B1, “Tetracyclic benzimidazole derivatives and combinatorial libraries thereof” (Lion Bioscience AG, priority 1999, dated 2003).

Tested on: Streptococcus pyogenes (ATCC# 97-03 14289)
Assay: Anti-microbial screen (growth inhibition, OD 570 nm)
Type: cell-based
Settings: ATCC97, compounds at 170 μg/ml, Todd Hewitt Broth, read at 4 hrs
Method: Streptococcus pyogenes (ATCC# 97-03 14289) were grown in Todd Hewitt Broth (THB) (Difco Laboratories #0492-17-6) overnight until they reached an optical density of (OD=0.636@ 570 nm) by reading 0.1 ml in a 96 well microtiter plate in a Molecular Devices Thermomax. This preparation was kept frozen as stocks in 30% v/v glycerol in 1.5 ml aliquots at −70 C° until used. Prior to screening, 1.5 ml aliquots were thawed and diluted into 50 ml THB. 200 μl of this dilution was added to 92 wells of microtiter plate. To three wells THB (200 μl) was added to serve as a blank and a sterility control. Test compounds in DMSO and appropriate concentrations of DMSO were added to Growth/Solvent Controls at 0 time. Plates were read at 0 time at 570 nm in the Molecular Devices plate reader to obtain compounds correction factors for insoluble or colored compounds. Plates were read again at 4 hrs.
Compounds were assayed at a concentration of 170 μg/ml. Percent inhibition for each compound was calculated using the following formulae:
Color correct=(O.D. 0 hr−Blank 0 hr)−(Solvent Control 0 hr−Blank 0 hr)
% Inhibition=100−(O.D. test compound 4 hr−Blank 4 hr−color correct) divided by (O.D. growth/solvent control 4 hr−Blank 4 hr)

CN(C)CCCN(C)c1ccc2c(c1)-c1nc3cc(C(F)(F)F)ccc3n1C(CCCCNC(=O)C(F)(F)F)C(=O)N2 (stereo not shown) [6000#56935]
inhibition at 170 µg/mL: 95.8%

CN(C)CCCN(C)c1ccc2c(c1)-c1nc3cc(Br)ccc3n1C(CCCCNC(=O)C(F)(F)F)C(=O)N2 (stereo not shown) [6000#56695]
inhibition at 170 µg/mL: 95.8%

CCOC(=O)C1CCN(c2ccc3c(c2)-c2nc4ccc(Cl)cc4n2C(CCCCNC(=O)C(F)(F)F)C(=O)N3)CC1 (stereo not shown) [6000#57085]
inhibition at 170 µg/mL: 96.7%

CC(=O)NCCNC(=O)c1ccc2c(c1)nc1n2[C@@H](Cc2ccc(Cl)cc2)C(=O)Nc2ccc(NCCCN3CCCCC3C)cc2-1 (stereo partly shown) [6000#47222]
inhibition at 170 µg/mL: 95.7%

COCCN(CCOC)C(=O)c1ccc2c(c1)nc1n2[C@@H](CC2CCCCC2)C(=O)Nc2ccc(N(C)CCN(C)C)cc2-1 [6000#38735]
inhibition at 170 µg/mL: 96.7%

CCCCNc1ccc2c(c1)-c1nc3cc(C(=O)NCCCCCC(=O)OC)ccc3n1C(CCCNC(=N)N)C(=O)N2 (stereo not shown) [6000#57343]
inhibition at 170 µg/mL: 100%

CC1CC(Nc2ccc3c(c2)-c2nc4ccc(Cl)cc4n2CC(=O)N3)CC(C)(C)C1 (stereo not shown) [6000#04080]
inhibition at 170 µg/mL: 95.3%

CN(C)CCCN(C)c1ccc2c(c1)-c1nc3cc(C(=O)N4CCC(C(N)=O)CC4)ccc3n1[C@@H](CC1CCCCC1)C(=O)N2 [6000#38375]
inhibition at 170 µg/mL: 95.1%

CCOCCNc1ccc2c(c1)-c1nc3cc(C(=O)Nc4nccs4)ccc3n1C(CCCNC(=N)N)C(=O)N2 (stereo not shown) [6000#57258]
inhibition at 170 µg/mL: 96.9%

CC(=O)NCCNC(=O)c1ccc2c(c1)nc1n2C(CCCNC(=N)N)C(=O)Nc2ccc(NCc3ccc(F)cc3)cc2-1 (stereo not shown) [6000#59512]
inhibition at 170 µg/mL: 98.7%

N=C(N)NCCCC1C(=O)Nc2ccc(N3CCOCC3)cc2-c2nc3cc(Br)ccc3n21 (stereo not shown) [6000#60794]
inhibition at 170 µg/mL: 97.3%

CCN1CCCC1CNc1ccc2c(c1)-c1nc3cc(C(F)(F)F)ccc3n1C(CCCCNC(=O)C(F)(F)F)C(=O)N2 (stereo not shown) [6000#56957]
inhibition at 170 µg/mL: 97.4%

COCCN(CCOC)C(=O)c1ccc2c(c1)nc1n2[C@@H](Cc2ccc(Cl)cc2)C(=O)Nc2ccc(N(C)CCN(C)C)cc2-1 [6000#46895]
inhibition at 170 µg/mL: 96.1%

CCOC(=O)CCNC(=O)c1ccc2c(c1)nc1n2C(CCCNC(=N)N)C(=O)Nc2ccc(Sc3ccccn3)cc2-1 (stereo not shown) [6000#57425]
inhibition at 170 µg/mL: 97.8%

CCN1CCCC1CNC(=O)c1ccc2c(c1)nc1n2CC(=O)Nc2ccc(N(C)CCN(C)C)cc2-1 (stereo not shown) [6000#00015]
inhibition at 170 µg/mL: 96.3%

CCN(CC)c1ccc2c(c1)-c1nc3ccccc3n1C(CCCNC(=N)N)C(=O)N2 (stereo not shown) [6000#60879]
inhibition at 170 µg/mL: 97.4%

CCOC(=O)N1CCN(C(=O)c2ccc3c(c2)nc2n3C(CCCNC(=N)N)C(=O)Nc3ccc(NCCCSC)cc3-2)CC1 (stereo not shown) [6000#59387]
inhibition at 170 µg/mL: 97.8%

CSCCCNC(=O)c1ccc2c(c1)nc1n2[C@@H](CC2CCCCC2)C(=O)Nc2ccc(N(C)CCN(C)C)cc2-1 [6000#39135]
inhibition at 170 µg/mL: 98.1%

CSCCCNC(=O)c1ccc2c(c1)nc1n2[C@@H](Cc2ccc(Cl)cc2)C(=O)Nc2ccc(N(C)CCCN(C)C)cc2-1 [6000#47335]
inhibition at 170 µg/mL: 96.2%

CN(C)CCN(C)c1ccc2c(c1)-c1nc3ccc(Cl)cc3n1[C@H](Cc1ccccc1)C(=O)N2 [6000#36655]
inhibition at 170 µg/mL: 96.8%

COCCN(CCOC)C(=O)c1ccc2c(c1)nc1n2C(CCCNC(=N)N)C(=O)Nc2ccc(N(C)Cc3ccccc3)cc2-1 (stereo not shown) [6000#59152]
inhibition at 170 µg/mL: 97.2%

CN(C)CCN(C)c1ccc2c(c1)-c1nc3ccccc3n1[C@H](Cc1ccccc1)C(=O)N2 [6000#36335]
inhibition at 170 µg/mL: 100%

CCOC(=O)N1CCN(c2ccc3c(c2)-c2nc4ccccc4n2C(CCCNC(=N)N)C(=O)N3)CC1 (stereo not shown) [6000#60826]
inhibition at 170 µg/mL: 95%

O=C1Cn2c(nc3ccc(Cl)cc32)-c2cc(NC3CCCCCC3)ccc2N1 [6000#04048]
inhibition at 170 µg/mL: 95%

CN(C)CCN(C)c1ccc2c(c1)-c1nc3cc(Br)ccc3n1[C@@H](CCCCNC(=O)C(F)(F)F)C(=O)N2 [6000#56655]
inhibition at 170 µg/mL: 97.8%

CC1CCCCN1CCCNc1ccc2c(c1)-c1nc3ccc(Cl)cc3n1C(C)C(=O)N2 (stereo not shown) [6000#08102]
inhibition at 170 µg/mL: 95.1%

CCCCNc1ccc2c(c1)-c1nc3cc(C(=O)N4CCCC4)ccc3n1C(CCCNC(=N)N)C(=O)N2 (stereo not shown) [6000#57503]
inhibition at 170 µg/mL: 97.4%

CC1(C)CC(NC(=O)c2ccc3c(c2)nc2n3[C@@H](CCC(N)=O)C(=O)Nc3ccc(NCc4cccc(C(F)(F)F)c4)cc3-2)CC(C)(C)N1 [6000#17584]
inhibition at 170 µg/mL: 97.2%

CCN1CCCC1CNC(=O)c1ccc2c(c1)nc1n2CC(=O)Nc2ccc(NCCN3CCOCC3)cc2-1 (stereo not shown) [6000#00002]
inhibition at 170 µg/mL: 96.3%

CCOC(=O)CCNC(=O)c1ccc2c(c1)nc1n2[C@@H](Cc2ccc(Cl)cc2)C(=O)Nc2ccc(N(C)CCN(C)C)cc2-1 [6000#45135]
inhibition at 170 µg/mL: 97.8%

CCOC(=O)C1CCN(c2ccc3c(c2)-c2nc4cc(C(=O)N5CCC(NC(C)=O)C5)ccc4n2C(CCCNC(=N)N)C(=O)N3)CC1 (stereo not shown) [6000#59325]
inhibition at 170 µg/mL: 95.2%

CN(C)CCN(C)c1ccc2c(c1)-c1nc3cc(C(F)(F)F)ccc3n1[C@@H](Cc1c[nH]c3ccccc13)C(=O)N2 [6000#52815]
inhibition at 170 µg/mL: 98.8%

CN(C)CCCNc1ccc2c(c1)-c1nc3cc(Br)ccc3n1C(CCCCNC(=O)C(F)(F)F)C(=O)N2 (stereo not shown) [6000#56687]
inhibition at 170 µg/mL: 96.8%

CN(C)CCCN(C)c1ccc2c(c1)-c1nc3cc(C(=O)NCCCN4CCCC4=O)ccc3n1[C@@H](Cc1ccc(Cl)cc1)C(=O)N2 [6000#46455]
inhibition at 170 µg/mL: 96.8%

CCOC(=O)C1CCCN(C(=O)c2ccc3c(c2)nc2n3C(CCCNC(=N)N)C(=O)Nc3ccc(N4CCSCC4)cc3-2)C1 (stereo not shown) [6000#58475]
inhibition at 170 µg/mL: 99.1%

CCN1CCCC1CNC(=O)c1ccc2c(c1)nc1n2CC(=O)Nc2ccc(NCCCN3CCOCC3)cc2-1 (stereo not shown) [6000#00010]
inhibition at 170 µg/mL: 95.7%

CCOC(=O)N1CCN(C(=O)c2ccc3c(c2)nc2n3C(CCCNC(=N)N)C(=O)Nc3ccc(Sc4ccccn4)cc3-2)CC1 (stereo not shown) [6000#59425]
inhibition at 170 µg/mL: 96.8%

CN(C)CCCN(C)c1ccc2c(c1)-c1nc3cc(C(=O)NCCN4CCOCC4)ccc3n1[C@@H](CC1CCCCC1)C(=O)N2 [6000#39255]
inhibition at 170 µg/mL: 95.2%

CCN1CCCC1CNC(=O)c1ccc2c(c1)nc1n2CC(=O)Nc2ccc(NCCN(C)C)cc2-1 (stereo not shown) [6000#00007]
inhibition at 170 µg/mL: 95.2%

CN(CCc1ccccc1)c1ccc2c(c1)-c1nc3cc(C(=O)NC4CC(C)(C)NC(C)(C)C4)ccc3n1[C@@H](CCC(N)=O)C(=O)N2 [6000#17560]
inhibition at 170 µg/mL: 98.6%

CCOC(=O)N1CCN(C(=O)c2ccc3c(c2)nc2n3C(CCCNC(=N)N)C(=O)Nc3ccc(N(CC)CC)cc3-2)CC1 (stereo not shown) [6000#59439]
inhibition at 170 µg/mL: 96.4%

CCOCCNc1ccc2c(c1)-c1nc3cc(Br)ccc3n1C(CCCNC(=N)N)C(=O)N2 (stereo not shown) [6000#60778]
inhibition at 170 µg/mL: 98.8%

CCOC(=O)C1CCCN(C(=O)c2ccc3c(c2)nc2n3C(CCCNC(=N)N)C(=O)Nc3ccc(N4CCCC(C(=O)OCC)C4)cc3-2)C1 (stereo not shown) [6000#58437]
inhibition at 170 µg/mL: 100%

CCN(CC)c1ccc2c(c1)-c1nc3cc(C(=O)N4CCCC4)ccc3n1C(CCCNC(=N)N)C(=O)N2 (stereo not shown) [6000#57519]
inhibition at 170 µg/mL: 100%

CC(=O)N1CCN(c2ccc3c(c2)-c2nc4cc(Br)ccc4n2C(CCCNC(=N)N)C(=O)N3)CC1 (stereo not shown) [6000#60754]
inhibition at 170 µg/mL: 97.3%

CCN(CC)c1ccc2c(c1)-c1nc3cc(C(=O)N(C)C4CCN(C)CC4)ccc3n1C(CCCNC(=N)N)C(=O)N2 (stereo not shown) [6000#57999]
inhibition at 170 µg/mL: 95.1%

CCCCNc1ccc2c(c1)-c1nc3cc(C(=O)NCCO)ccc3n1C(CCCNC(=N)N)C(=O)N2 (stereo not shown) [6000#58223]
inhibition at 170 µg/mL: 97%

CN(C)CCN(C)c1ccc2c(c1)-c1nc3cc(Br)ccc3n1C(CCCNC(=N)N)C(=O)N2 (stereo not shown) [6000#60735]
inhibition at 170 µg/mL: 99.9%

CCOC(=O)N1CCN(C(=O)c2ccc3c(c2)nc2n3C(CCCNC(=N)N)C(=O)Nc3ccc(N4CCSCC4)cc3-2)CC1 (stereo not shown) [6000#59435]
inhibition at 170 µg/mL: 96.1%

CC(=O)NCCNc1ccc2c(c1)-c1nc3cc(Br)ccc3n1C(CCCNC(=N)N)C(=O)N2 (stereo not shown) [6000#60738]
inhibition at 170 µg/mL: 96.5%

Cn1cnnc1Sc1ccc2c(c1)-c1nc3ccccc3n1C(CCCNC(=N)N)C(=O)N2 (stereo not shown) [6000#60857]
inhibition at 170 µg/mL: 95.3%

CN(C)CCCNc1ccc2c(c1)-c1nc3cc(C(F)(F)F)ccc3n1C(CCCCNC(=O)C(F)(F)F)C(=O)N2 (stereo not shown) [6000#56927]
inhibition at 170 µg/mL: 96.3%

CCOC(=O)C1CCCN(c2ccc3c(c2)-c2nc4cc(C(=O)N5CCC(NC(C)=O)C5)ccc4n2C(CCCNC(=N)N)C(=O)N3)C1 (stereo not shown) [6000#59317]
inhibition at 170 µg/mL: 96.6%

N=C(N)NCCCC1C(=O)Nc2ccc(N3CCSCC3)cc2-c2nc3ccccc3n21 (stereo not shown) [6000#60875]
inhibition at 170 µg/mL: 101%

CC(=O)NC1CCN(C(=O)c2ccc3c(c2)nc2n3C(CCCNC(=N)N)C(=O)Nc3ccc(N4CCSCC4)cc3-2)C1 (stereo not shown) [6000#59355]
inhibition at 170 µg/mL: 97.2%

CCOC(=O)C1CCCN(C(=O)c2ccc3c(c2)nc2n3C(CCCNC(=N)N)C(=O)Nc3ccc(N(C)CCc4ccccn4)cc3-2)C1 (stereo not shown) [6000#58414]
inhibition at 170 µg/mL: 98%

CN(C)CCCNc1ccc2c(c1)-c1nc3ccc(Cl)cc3n1[C@H](Cc1ccccc1)C(=O)N2 [6000#36687]
inhibition at 170 µg/mL: 96.1%

CCOC(=O)CCNC(=O)c1ccc2c(c1)nc1n2C(CCCNC(=N)N)C(=O)Nc2ccc(NC3CCN(Cc4ccccc4)C3)cc2-1 (stereo not shown) [6000#57389]
inhibition at 170 µg/mL: 97.3%
